The results in this text go back to US8124137B2, “Composition for prevention and/or treatment of tumors containing acacia bark derivative” (Mimozax Co., Ltd., priority 2006, dated 2012).

The test system of this assay is mouse tumor MM46 breast cancer cells. The experiment in a line: Tumor growth inhibition test in mice. It counts as in vivo. The settings on record: Positive Control group: 6.25 mg/kg intraperitoneally on days 7, 11 and 14. The protocol:
The required weighed amounts of Acacia Hot Water Extract No. 1 described in Production Example 2 were dispersed in water at 60° C. to prepare test drinks 1, 2 and 3 containing Acacia Hot Water Extract No. 1 at 7.8 mg/mL, 15.6 mg/mL and 31.3 mg/mL, respectively.
The required weighed amounts of Acacia Hot Water Extract No. 1 described in Production Example 2 were mixed with commercially available feed to prepare test feeds 2 and 3 containing Acacia Hot Water Extract No. 1 at 15.6 mg/g and 31.3 mg/g, respectively.
Female C3H/HeN mice were assigned to a Control 1 group, Test 1 group, Test 2 group, Test 3 group and Positive Control group as shown in the table below.
First, 2×10^6 mouse tumor MM46 breast cancer cells were transplanted subcutaneously into the inguinal region of the mice grouped as indicated above according to the method described in Abe, S. et al., Gann 73, 91-96 (1982) and Ohasi, K. et al., Yakugaku Zasshi 113, 396-399 (1993).
Tap water was given to the Control 1 group while Test Drinks 1 to 3 were given to the Test 1 to Test 3 groups, respectively, as drinking water, starting on the day of tumor transplantation. In addition, tap water was given to the Positive Control group, and this group was also intraperitoneally administered 6.25 mg/kg of lentinan on days 7, 11 and 14 following tumor transplantation.
Consequently, Test Drink 2 and Test Drink 3 were replaced with tap water on day 7 of tumor transplantation. In addition, five mice each of the Test 2 group were reassigned to a Control 2 group and a Test 2a group, while five mice each of the Test 3 group were reassigned to a Control 3 group and a Test 3a group. Animals of the Control 2 group and Control 3 group were continued to be fed the control feed. The Test 2a group and Test 3a group were fed Test Feed 2 and Test Feed 3, respectively, instead of the control feed.
Growth of the tumor transplanted subcutaneously into the inguinal regions of the mice was observed by palpation for 4 weeks every 3 or 4 days, and tumor diameter was also measured. In addition, survival times (days) and body weights were also measured. The tumors were excised and their wet weights were measured following completion of the test.
Furthermore, the Student's t-test was used for statistical testing.

As for lentinan, under “day 14 after transplantation”, the Average tumor diameter was found to be 7.4 ± 6.58 mm and the “reduction rate versus Control 1 group (average tumor diameter)” value turned out to be 43.5%. For the same substance, for the setting “day 28 after transplantation”, the Average tumor diameter is given as 14.0 ± 6.12 mm and the “reduction rate versus Control 1 group (average tumor diameter)” value is on record as 41.2%.
